Assay results taken from BindingDB's records for doi:10.1021/jm300579z (Merck Research Laboratories, 2012).

Target: Pituitary adenylate cyclase-activating polypeptide type I receptor (Homo sapiens) (UniProt P41586)
Test: Antagonist activity at human PAC1 expressed in mouse […] 3T3 cells assessed as inhibition of glucagon-induced cAMP accumulation preincubated for 30 mins prior to glucagon challenge measured after 30 mins post glucagon challenge by liquid scintillation counter

Chain of Pituitary adenylate cyclase-activating polypeptide type I receptor (Homo sapiens) (P41586 whole entry, looked up): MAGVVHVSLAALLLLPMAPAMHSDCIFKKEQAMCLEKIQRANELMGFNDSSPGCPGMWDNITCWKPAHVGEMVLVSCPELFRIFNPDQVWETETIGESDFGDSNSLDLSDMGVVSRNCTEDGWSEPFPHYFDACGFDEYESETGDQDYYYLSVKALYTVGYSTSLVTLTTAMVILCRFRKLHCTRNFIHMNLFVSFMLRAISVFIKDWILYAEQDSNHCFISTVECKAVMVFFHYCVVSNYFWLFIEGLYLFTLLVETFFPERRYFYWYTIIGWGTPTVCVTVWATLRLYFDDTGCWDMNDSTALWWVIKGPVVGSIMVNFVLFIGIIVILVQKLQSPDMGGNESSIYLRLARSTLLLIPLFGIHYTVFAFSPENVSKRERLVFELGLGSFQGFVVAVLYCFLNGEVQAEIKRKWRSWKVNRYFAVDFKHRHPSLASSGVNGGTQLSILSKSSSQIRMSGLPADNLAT

IC50: 9.2 µM
Structure (SMILES): COc1ccc2cc(-c3cc(-c4cc(Cl)cc(Cl)c4)nn3[C@@H](C)c3ccc(C(=O)NCCC(=O)O)cc3)ccc2c1
